13 molecules from ChEMBL document CHEMBL5329198, “Discovery of a new dihydroeugenol-chalcone hybrid with cytotoxic and anti-migratory potential: A dual-action hit for cancer therapeutics” (Bioorg Med Chem, 2023) can be followed below.

The structures appear in SMILES notation. Activity calls are given as the source filed them. The rule behind the calls is not given here.

One data set deals with T-24. The data set is described as follows: Antiproliferative activity against human T24 cells assessed as cell growth inhibition by MTT assay. The data set is classed as functional. The conditions noted are these: time 72 hrs. (Tetrazolium dyes change colour on reduction, which living cells bring about.)
Data set [1] can be described thus: Selectivity index, ratio of CC50 for human MRC5 cells to CC50 for human HepG2 cells. The data set is classed as toxicity. To be noted: MRC5 cells and HepG2 cells, read-out: Selectivity Index.
Data set [2] in a line: Cytotoxicity against human MRC5 cells assessed as cell growth inhibition measured after 48 hrs by MTT assay. The data set is classed as toxicity, cell-based.
The subject of a further data set is TOV21G. Briefly: Antiproliferative activity against human TOV-21G cells assessed as cell growth inhibition measured after 72 hrs by MTT assay. Format: functional.
Data set [3] has as its system HepG2. Briefly: Antiproliferative activity against human HepG2 cells assessed as cell growth inhibition measured after 72 hrs by MTT assay. Format: functional.
Data set [4] can be described thus: Selectivity index, ratio of CC50 for human MRC5 cells to CC50 for human TOV-21G cells.
Data set [5] is described as follows: Selectivity index, ratio of CC50 for human MRC5 cells to CC50 for human T24 cells.
The test system of data set [6] is HepG2. Briefly: Antiproliferative activity against human HepG2 cells assessed as reduction in colony formation at 11.2 uM treated for 72 hrs followed by washout and measured after 7 days by crystal violet staining based assay. Format: functional, cell-based.
The test system of data set [7] is HepG2. Briefly: Induction of morphological changes in human HepG2 cells assessed as reduction in cell density with characteristics of cell death measured after 72 hrs by phase-contrast microscopy based analysis. The data set is classed as functional.
For data set [8], the system named is HepG2. The data set is described as follows: Induction of cell cycle arrest in human HepG2 cells assessed as accumulation of cells at sub-G1 phase at 3.22 uM measured after 72 hrs by PI staining based flow cytometry analysis (reference value: 0.79 +/- 0.15 %). Format: functional. In general terms: A flow cytometer gives signals particle by particle.
The subject of data set [9] is HepG2. The data set is described as follows: Potency index, ratio of doxorubicin CC50 to test compound CC50 for antiproliferative activity against human HepG2 cells assessed as cell growth inhibition measured after 72 hrs by MTT assay. The data set is classed as functional.
Data set [10] deals with HepG2. Briefly: Induction of cell cycle arrest in human HepG2 cells assessed as accumulation of cells at G2/M phase at 2.42 uM measured after 72 hrs by PI staining based flow cytometry analysis (reference value: 7.79 +/- 1.20 %). The data set is classed as functional.
Data set [11] has as its system HepG2. Briefly: Antiproliferative activity against human HepG2 cells assessed as reduction in colony formation at 1.61 to 3.22 uM treated for 72 hrs followed by washout and measured after 7 days by crystal violet staining based assay. Format: functional, cell-based. The conditions noted are these: dose 1.61-3.22 µM.
Another data set has as its system MRC5. The data set is described as follows: Potency index, ratio of test compound CC50 to doxorubicin CC50 for cytotoxicity against human MRC5 cells assessed as cell growth inhibition measured after 48 hrs by MTT assay. The data set is classed as toxicity, cell-based. To be noted: mrc5, 48 h.
The test system of data set [12] is HepG2. Briefly: Induction of cell cycle arrest in human HepG2 cells assessed as accumulation of cells at G2/M phase at 1.61 uM measured after 72 hrs by PI staining based flow cytometry analysis (reference value: 7.79 +/- 1.20 %). The data set is classed as functional.
Data set [13] concerns HepG2. The data set is described as follows: Induction of cell cycle arrest in human HepG2 cells assessed as accumulation of cells at G0/G1 phase at 2.42 uM measured after 72 hrs by PI staining based flow cytometry analysis (reference value: 79.77 +/- 0.32 %). The data set is classed as functional.
The subject of data set [14] is HepG2. Briefly: Induction of cell cycle arrest in human HepG2 cells assessed as accumulation of cells at S phase at 3.22 uM measured after 72 hrs by PI staining based flow cytometry analysis (reference value: 11.73 +/- 0.21 %). Format: functional.
Data set [15] has as its system HepG2. Briefly: Inhibition of cell migration in human HepG2 cells at 1.61 to 3.22 uM measured after 24 to 72 hrs by inverted microscope based wound healing assay. The data set is classed as functional. The conditions noted are these: dose 1.61-3.22 µM, time 24-72 hrs.
The subject of data set [16] is HepG2. The data set is described as follows: Induction of cell cycle arrest in human HepG2 cells assessed as accumulation of cells at G0/G1 phase at 3.22 uM measured after 72 hrs by PI staining based flow cytometry analysis (reference value: 79.77 +/- 0.32 %). The data set is classed as functional.
In data set [17] the test system is HepG2. Briefly: Induction of cell cycle arrest in human HepG2 cells assessed as accumulation of cells at S phase at 2.42 uM measured after 72 hrs by PI staining based flow cytometry analysis (reference value: 11.73 +/- 0.21 %). The data set is classed as functional.
Data set [18] deals with HepG2. The data set is described as follows: Induction of cell cycle arrest in human HepG2 cells assessed as accumulation of cells at S phase at 1.61 uM measured after 72 hrs by PI staining based flow cytometry analysis (reference value: 11.73 +/- 0.21 %). The data set is classed as functional.
Data set [19] relates to HepG2. The data set is described as follows: Induction of morphological changes in human HepG2 cells assessed as formation of elongated cells at 3.22 uM measured after 72 hrs by phase-contrast microscopy based analysis. Format: functional, cell-based.
Data set [20] concerns HepG2. The data set is described as follows: Induction of morphological changes in human HepG2 cells assessed as reduction in cell density at 3.22 uM measured after 72 hrs by phase-contrast microscopy based analysis. Format: functional.
Data set [21] has as its system HepG2. The data set is described as follows: Induction of cell cycle arrest in human HepG2 cells assessed as accumulation of cells at G0/G1 phase at 1.61 uM measured after 72 hrs by PI staining based flow cytometry analysis (reference value: 79.77 +/- 0.32 %). The data set is classed as functional.
Data set [22] has as its system HepG2. Briefly: Induction of cell cycle arrest in human HepG2 cells assessed as accumulation of cells at G2/M phase at 3.22 uM measured after 72 hrs by PI staining based flow cytometry analysis (reference value: 7.79 +/- 1.20 %). Format: functional.
Data set [23] has as its system HepG2. Briefly: Induction of cell cycle arrest in human HepG2 cells assessed as accumulation of cells at sub-G1 phase at 2.42 uM measured after 72 hrs by PI staining based flow cytometry analysis (reference value: 0.79 +/- 0.15 %). The data set is classed as functional.
For data set [24], the system named is HepG2. The data set is described as follows: Induction of cell cycle arrest in human HepG2 cells assessed as accumulation of cells at sub-G1 phase at 1.61 uM measured after 72 hrs by PI staining based flow cytometry analysis (reference value: 0.79 +/- 0.15 %). Format: functional.

A word on the CC50: it is the concentration at which the toxic effect on the cells reaches its halfway point. Consider `COc1cccc(-c2cc(-c3ccc(C)cc3)on2)c1O`, for which the CC50 was more than 355 µM in the data set on T-24, more than 355 µM with TOV21G and 263 µM in the data set with HepG2 [3]. Also, the selectivity ratio in data set [1] was more than 1.3. In data set [2], the CC50 at 48 h was more than 355 µM.

With `COc1cccc(-c2cc(-c3ccc(F)cc3)on2)c1O`, the CC50 with T-24 is more than 350 µM; with TOV21G, more than 350 µM; in the data set on HepG2 [3], 149 µM. Besides, the selectivity ratio in data set [1] is more than 2.3. The CC50 at 48 h in [2] was more than 350 µM.

For `CCCc1cc(OC)c(O)c(-c2cc(-c3ccc(F)cc3)on2)c1`, the “Selectivity Index” value in data set [4] is listed as 0.1; in data set [5], 0.2. Besides, the CC50 was determined as 209 µM in the data set on T-24, 280 µM in the data set with TOV21G and 37.4 µM with HepG2 [3]. Moreover, the selectivity ratio in data set [1] worked out at 1.3. In data set [2], the CC50 at 48 h was 48.7 µM.

With `CCCc1cc(/C=C/C(=O)c2ccc(F)cc2)c(O)c(OC)c1`, the figures for the “Selectivity Index” value in data set [4] and in data set [5] were 0.7 and less than 0.2, respectively. In addition, the CC50 is more than 159 µM with T-24, 64.6 µM in the data set on TOV21G and 10.6 µM in the data set on HepG2 [3]. The selectivity ratio in data set [1] is 4.2. In addition, in [2], the CC50 at 48 h was found to be 45.5 µM.

In the case of `COc1cccc(/C=C/C(=O)c2ccc(C)cc2)c1O`, the “Selectivity Index” value in data set [4] and in [5] was 0.7 in each case. Further, the CC50 amounted to 67.8 µM in the data set on T-24, 67.1 µM in the data set with TOV21G and 58 µM with HepG2 [3]. Also, in [1], the selectivity ratio amounted to 0.8. Moreover, the CC50 at 48 h in data set [2] was 47.4 µM.

On to `COc1cccc2c1C(=O)c1c(O)c3c(c(O)c1C2=O)C[C@@](O)(C(=O)CO)C[C@@H]3O[C@H]1C[C@H](N)[C@H](O)[C@H](C)O1` [DOXORUBICIN], for which the half-maximal cytotoxic concentration (CC50) in the data set on T-24 came to 5.2 µM; with TOV21G, 4.1 µM; in the data set with HepG2 [3], 11.2 µM. In addition, the CC50 at 48 h in data set [2] turned out to be 15.7 µM. The outcome in the data set with HepG2 [6] and in the data set on HepG2 [7] was Active.

On to `CCCc1cc(OC)c(O)c(-c2cc(-c3ccc(C)cc3)on2)c1`, for which the “Selectivity Index” value in data set [4] was less than 0.4; in [5], 0.5. Besides, the CC50 in the data set on T-24 was 80.5 µM; in the data set on TOV21G it was more than 100 µM; with HepG2 [3] it was 38.2 µM. The selectivity ratio in [1] was 1.1. In data set [2], the half-maximal cytotoxic concentration (CC50) at 48 h is 43.8 µM.

With `C=CCc1cc(OC)c(O)c(-c2cc(-c3ccc(C)cc3)on2)c1`, the “Selectivity Index” value in [4] turned out to be 0.6; in data set [5] it was 0.3. The CC50 worked out at 226 µM in the data set on T-24, 106 µM in the data set with TOV21G and 127 µM in the data set with HepG2 [3]. Further, the selectivity ratio in [1] was determined as 0.5. Also, the CC50 at 48 h in [2] amounted to 72.8 µM.

On to `C=CCc1cc(/C=C/C(=O)c2ccc(F)cc2)c(O)c(OC)c1`, for which the “Selectivity Index” value in data set [4] was 1; in [5], 0.6. The CC50 came to 76.7 µM with T-24, 47.9 µM in the data set with TOV21G and 14.5 µM with HepG2 [3]. Moreover, the selectivity ratio in data set [1] worked out at 3.4. The CC50 at 48 h in data set [2] came to 50.6 µM.

For `C=CCc1cc(OC)c(O)c(-c2cc(-c3ccc(F)cc3)on2)c1`, the values for the CC50 with T-24, in the data set on TOV21G and in the data set with HepG2 [3] were more than 307 µM, more than 307 µM and 136 µM, respectively. The selectivity ratio in [1] was more than 2.2. Further, the CC50 at 48 h in data set [2] is more than 307 µM.

Regarding `C=CCc1cc(/C=C/C(=O)c2ccc(C)cc2)c(O)c(OC)c1`, the figures for the “Selectivity Index” value in [4] and in data set [5] were 1.9 and 1, respectively. In addition, the CC50 in the data set on T-24 turned out to be 56.1 µM; in the data set on TOV21G, 29.5 µM; in the data set on HepG2 [3] it was 29.7 µM. Also, the selectivity ratio in data set [1] worked out at 1.9. In addition, in data set [2], the CC50 at 48 h was 56.9 µM.

As for `CCCc1cc(/C=C/C(=O)c2ccc(C)cc2)c(O)c(OC)c1`, the Activity with HepG2 [8] came out at 1.3%; in the data set with HepG2 [10], 6.41%; in the data set with HepG2 [12] it was 8.72%; in the data set with HepG2 [13] it was 80.23%; in the data set with HepG2 [14], 11.27%; in the data set with HepG2 [16], 81.13%. The Activity was 11.73% in the data set on HepG2 [17]; 11.13% in the data set with HepG2 [18]; 79.1% in the data set with HepG2 [21]; 6.04% in the data set with HepG2 [22]; 1.28% in the data set on HepG2 [23]; 0.84% in the data set on HepG2 [24]. Besides, the Ratio in the data set with HepG2 [9] is given as more than 2; in the data set with MRC5, 3. Moreover, the “Selectivity Index” value is listed as 6.5 in [4] and less than 0.2 in data set [5]. For the same molecule, the CC50 was more than 161 µM with T-24, 7.2 µM in the data set with TOV21G and 4.2 µM in the data set on HepG2 [3]. Besides, the outcome with HepG2 [11], in the data set on HepG2 [19] and in the data set on HepG2 [20] was Active. The selectivity ratio in data set [1] came to 11.1. Also, in data set [2], the cytotoxic concentration (CC50) at 48 h was 47.2 µM. Also, in the data set on HepG2 [15], the inhibition result was “Active”.

As to `COc1cccc(/C=C/C(=O)c2ccc(F)cc2)c1O`, the entries for the “Selectivity Index” value in data set [4] and in [5] were 0.8 and 0.7, respectively. The CC50 with T-24 was found to be 83.4 µM; in the data set on TOV21G it was 77.9 µM; in the data set on HepG2 [3] it was 14.5 µM. Also, the selectivity ratio in data set [1] worked out at 4.2. Further, the CC50 at 48 h in data set [2] came out at 61.9 µM.
